According to patent US8648200B2, “Imidazole derivatives useful for the treatment of arthritis” (Eli Lilly and Company, priority 2011, dated 2014):

How the values were obtained:
[1] = tested on: Dunkin Hartley guinea pigs; test: Monoiodoacetate (MIA) In Vivo Model, incapacitance testing; set-up: species or system guinea pig; conditions: for Mean % Reduction of Pain Compared to Vehicle / Mean Difference in Hind Paw Weight Bearing (Saline knee-MIA knee): four hours post-dose; for Mean Difference in Hind Paw Weight Bearing (Saline knee-MIA knee): 9 days after MIA, Mean ± SEM, n=6; for pain versus vehicle (statistical comparison): Example 1 both doses (10 and 50 mg/kg), diclofenac 30 mg/kg, p<0.05 by Dunnett's test
Protocol: Male Dunkin Hartley guinea pigs weighing approximately 200-250 grams at the time of MIA injection are used to measure pain in the MIA model. The guinea pigs are group housed in a child's wading pool and maintained in a constant temperature and on a 12 hour light/12 hour dark cycle. On the day before study, the guinea pigs are moved to standard caging with 2 animals per cage. Animals have free access to food and water at all times except during data collection. All experiments are carried out according to protocols approved by the Eli Lilly Institutional Animal Care and Use Committees.
In the standard MIA model the right knees of each guinea pig are injected with MIA (0.3 mg) in saline ([…]) and the left knees with saline (50 μl). Pain is measured at 9 days after MIA injection using incapacitance testing. Incapacitance testing measures the difference in hind paw weight bearing between the MIA and saline injected knees, and each value represents the average of 3 separate measurements each measured over 1 second.
For this study, guinea pigs, are dosed with either vehicle (10% Cremophor® EL (CAS 61791-12-6) in saline) or Example 1 (10 or 50 mg/kg). A fourth group of guinea pigs are also dosed with the nonsteroidal anti-inflammatory drug diclofenac (vehicle saline, 30 mg/kg), which acts as a positive control for the study, as it has previously shown efficacy in the model. All dosing is subcutaneous at a dose volume of 5 ml/kg and group size is n=6. Dose group is randomly assigned to each animal and dosing is staggered by 10 minutes for each guinea pig. Four hours post-dose, pain is measured using incapacitance testing. Results are reported in Table 13 as the mean difference in weight bearing between saline and MIA injected knees and statistical comparisons are made between vehicle treated and compound treated animals to assess the effect of the compound of Example 1 on knee pain in the model.
Data is evaluated by one way analysis of variance; p<0.05 by Dunnett's test for comparison to vehicle and a Bonferroni adjustment is used for comparison between groups.

Human mPGES-1 = target: T1, Human mPGES-1 (Homo sapiens, UniProt O14684); test: Human mPGES-1 Enzyme Inhibition Assay; format: biochemical; conditions: microsomes from 293E cells, 1.69 μM PGH2; mean±standard deviation; n=10/22
T1 construct: host or cells: 293E cells (transient expression from pcDNA3.1); microsomes
T1 sequence (O14684 1-152): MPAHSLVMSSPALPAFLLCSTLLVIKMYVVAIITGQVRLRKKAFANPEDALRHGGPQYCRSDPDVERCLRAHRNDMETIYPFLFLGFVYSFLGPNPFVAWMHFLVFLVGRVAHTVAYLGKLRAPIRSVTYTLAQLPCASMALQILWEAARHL
Protocol: Human mPGES-1 (Invitrogen™ (Cat #97002RG, clone ID 6374722)) is subcloned into pcDNA3.1 and transiently expressed in 293E cells. […] Briefly, pellets are brought up in homogenization buffer (15 mM Tris-HCl, pH 8.0; 0.25 M sucrose; 0.1 mM EDTA; 1 mM glutathione) and sonicated 5×30 seconds on ice. Homogenate is centrifuged at 5000×g for 10 minutes at 4° C. The supernatant fraction is decanted; loaded into Beckman Quick-Seal® tubes; and centrifuged at 150,000×g for 90 minutes at 4° C. The supernatant fraction is discarded by decantation; and the pellets are resuspended in assay buffer (10 mM sodium phosphate (pH 7.0), 10% glycerol, and 2.5 mM glutathione. Complete Protease Inhibitor Cocktail (Roche)). Protein concentration is determined using the Pierce Coomassie Plus™ reagent.
For the enzyme assay, the microsomes are diluted into assay buffer and 7 μL/well is added to 384 well plates. Compound dilution plates (Nunc Cat #249944) are generated on a Multimek™, and 1 μL/well is added to the assay plates. Prostaglandin H2 (PGH2) is diluted into assay buffer immediately before use and 7 μL/well is added. Final concentrations are 4.4 μg/mL microsomes and 1.69 μM PGH2. After a 2.5 minute incubation at room temperature, 2.5 μL/well of 1 mg/mL of snCl2 in 0.5 N HCl is added to stop the reaction. […]

[2] = tested on: synthesis of other prostanoids; test: Cell Based Assay for Measuring Eicosanoid Selectivity (A549, other prostanoids, PGI2); set-up: species or system human; conditions: A549 cells, rhIL-1β; PGI2 by enzyme immunoassay
Protocol: (§1) Human epithelial lung carcinoma cell line A549 is obtained from ATCC (CCL-185) and is maintained in Kaighn's F12 (“F12K”)+10% fetal bovine serum, (FBS) (plating medium), and 5% CO2. The cells are passaged at 1:3 twice a week.
(§2) For this assay, cells are released from flasks by washing once with phosphate buffered saline (PBS), then once with Trypsin/EDTA. After 3-5 minutes at 37° C., the cells are suspended in 10 mL of plating medium, and centrifuged at 2,000 rpm at 25° C. for 5 minutes. The supernatant is aspirated, and the cell pellet is resuspended in 10 mL F12K. Cell number is determined by counting an aliquot of cells, which has been diluted in PBS and Trypan blue on a hemocytometer. Cells are plated at 40,000/well in 96 well Falcon plates 24 hours prior to treatment. […] The plates are incubated at room temperature for 30-45 minutes, and then read on a plate reader at A490 to determine viability. […]
(§3) The conditioned medium is assayed for levels of PGE2 and PGI2 by specific enzyme immune-assays (ETAs) according to the manufacturer's protocols (Cayman) Briefly, conditioned medium (1 μL) is added to each well of a 96 well plate coated with a capture antibody and containing ETA buffer (49 μL) supplied by the manufacturer. […] After approximately 45 minutes at room temperature on an orbital shaker at 100 rpm, the plates are read at A412 on a plate reader. […]

PGE2 formation = test: Cell Based Assay for Measuring Eicosanoid Selectivity (A549, rhIL-1β induced PGE2); conditions: Homo sapiens; A549 cells, rhIL-1β 0.1-0.2 ng/mL, approx. 18 hours; mean±standard deviation; n=4; read-out: IC50 inhibition of PGE2 formation
Protocol: as §1, §2, §3

[3] = tested on: PGF2α and TXB2 production; test: Human Whole Blood Assay (LPS, PGF2α and TXB2); format: cell-based; conditions: LPS 100 μg/mL, 20-24 hours
Protocol: Blood is collected from normal volunteer donors into sodium heparin vacutainer tubes. Donors have not taken NSAIDs, aspirin, Celebrex, or glucocorticoids within two weeks of the donation. All tubes/donor are pooled into 250 mL Corning conical centrifuge tubes and 436.5 μL/well is distributed into deep well polypropylene plates. Compounds are diluted in DMSO to 100× final and 4.5 μL/well in duplicate or triplicate is added to give 7 point curves. The blood is pretreated at 37° C., 5% CO2, in a humidified atmosphere, loosely covered with a silicone cap mat, for 30 minutes after which 9 μL/well of a solution of 5 mg/mL of lipopolysaccharide (LPS) (Sigma 0111:B4) in 1 mg/mL bovine serum albumin (BSA)/PBS is added to give a final LPS concentration of 100 μg/mL. The plates are incubated for 20-24 hours, loosely covered, at 37° C., 5% CO2, in a humidified atmosphere, on an orbital shaker at approximately 100 rpm. The plates are tightly sealed with silicone cap mats and are chilled on ice for approximately 1 hour. Then the plates are centrifuged at 1800×g, 10 minutes, 4° C., in an Eppendorf 5810R centrifuge. […] One hundred microliters is quantitatively transferred to Costar cluster tubes blocks and 400 μL/well of the methanol stop reagent and internal standards, d-4PGE2, d-4PGF2α, and d-4TX2β are added. […] The products were analyzed by LC/MS/MS.

SMILES	Mean % Reduction of Pain Compared to Vehicle ([1]; 30 mg/kg subcutaneous) [%]	Mean Difference in Hind Paw Weight Bearing (Saline knee-MIA knee) ([1]; 30 mg/kg subcutaneous) [g]	pain versus vehicle (statistical comparison) [1]	Mean % Reduction of Pain Compared to Vehicle ([1]; 10 mg/kg subcutaneous) [%]	Mean Difference in Hind Paw Weight Bearing (Saline knee-MIA knee) ([1]; 10 mg/kg subcutaneous) [g]	Mean % Reduction of Pain Compared to Vehicle ([1]; 50 mg/kg subcutaneous) [%]	Mean Difference in Hind Paw Weight Bearing (Saline knee-MIA knee) ([1]; 50 mg/kg subcutaneous) [g]	50 mg/kg group compared with the 10 mg/kg group and the diclofenac group ([1]; 50 mg/kg, Bonferroni adjustment for comparison between groups)	IC50 (Human mPGES-1) [nM]	effect on synthesis of other prostanoids [2]	IC50 (PGE2 formation) [nM]	effect on PGF2α production [3]	effect on TXB2 production [3]
O=C(O)Cc1ccccc1Nc1c(Cl)cccc1Cl [Diclofenac, diclofenac, reference compound]	22	34.65 ± 1.14	significantly reduce pain	–	–	–	–	–	–	–	–	–	–
Cc1nc(NC(=O)c2cc(CNC(=O)C(C)C)cnc2C(F)F)[nH]c1-c1ccc(C(F)(F)F)cc1 [Example 1, 2-(Difluoromethyl)-5-{[(2-methylpropanoyl)amino]methyl}-N-{4-methyl-5-[4-(trifluoromethyl)phenyl]-1H-imidazol-2-yl}pyridine-3-carboxamide]	–	–	significantly reduce pain	15	37.53 ± 0.87	36	28.44 ± 0.66	significantly different	0.944 ± 0.59	without affecting the synthesis of other prostanoids	12.1 ± 6.1	without inhibiting	without inhibiting
